Results from PMC9247443 (Frontiers in Pharmacology, 2022).
Values joined by “and” are separate entries in the source; they are usually repeats but may differ in a detail not shown here. Equal values may be shown once.

What was measured:
human S1P1 [1] = target: T1, human S1P1 (Homo sapiens, UniProt P21453); assay: S1P1-mediated β-arrestin recruitment assay (PathHunter eXpress EDG1 CHO-K1); type: cell-based; details: for Emax: CHO-K1, read-out: β-arrestin recruitment Intrinsic Activity, human S1P1; for EC50: EDG1(S1P1)/β-arrestin CHO-K1 cells, 90 min, mean ± SEM (n = 3–5) or SD (n = 2)
T1 sequence (P21453 whole entry): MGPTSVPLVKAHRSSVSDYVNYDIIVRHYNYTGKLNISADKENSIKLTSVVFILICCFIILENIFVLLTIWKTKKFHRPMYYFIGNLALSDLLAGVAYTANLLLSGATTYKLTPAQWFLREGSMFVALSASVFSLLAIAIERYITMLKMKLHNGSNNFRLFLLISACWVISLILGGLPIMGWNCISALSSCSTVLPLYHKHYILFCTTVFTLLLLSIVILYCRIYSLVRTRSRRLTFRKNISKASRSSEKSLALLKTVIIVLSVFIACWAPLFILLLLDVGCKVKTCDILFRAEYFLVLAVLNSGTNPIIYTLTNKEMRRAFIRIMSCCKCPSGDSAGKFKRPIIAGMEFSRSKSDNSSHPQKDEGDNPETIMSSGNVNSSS
Experimental: Human S1P1 β-arrestin assays were carried out using the PathHunter® eXpress EDG1 CHO-K1 β-arrestin GPCR Assay (DiscoverX, Cat# 93-0207E2, including frozen cell stock, assay media, and assay plate). EDG1(S1P1)/β-arrestin CHO-K1 cells were thawed by adding 0.5 ml warm media to the vial. The cells were then transferred to 11.5 ml warm media, seeded at a density of 10,000 cells per well in a 96 well assay plate in a volume of 100 μL per well and incubated overnight in a 37°C CO2 incubator. […] Compounds were then added to the EDG1(S1P1)/β-arrestin CHO-K1 cells—10 μl per well of the 11X stock was added to the 100 ul per well of cells and the plate was incubated for 90 min in a 37°C CO2 incubator. The detection solution was prepared according to the manufacture’s protocol and 55 μl was added to each well of assay plate. The plate was then incubated for 1 h at room temperature before being read on a SpectraMax5 plate reader. Basal β-arrestin recruitment was determined using medium containing DMSO alone.

human S1P5 [2] = target: T2, human S1P5 (Homo sapiens, UniProt Q9H228); assay: [^3H]-ozanimod competition radioligand binding
T2 sequence (Q9H228 whole entry): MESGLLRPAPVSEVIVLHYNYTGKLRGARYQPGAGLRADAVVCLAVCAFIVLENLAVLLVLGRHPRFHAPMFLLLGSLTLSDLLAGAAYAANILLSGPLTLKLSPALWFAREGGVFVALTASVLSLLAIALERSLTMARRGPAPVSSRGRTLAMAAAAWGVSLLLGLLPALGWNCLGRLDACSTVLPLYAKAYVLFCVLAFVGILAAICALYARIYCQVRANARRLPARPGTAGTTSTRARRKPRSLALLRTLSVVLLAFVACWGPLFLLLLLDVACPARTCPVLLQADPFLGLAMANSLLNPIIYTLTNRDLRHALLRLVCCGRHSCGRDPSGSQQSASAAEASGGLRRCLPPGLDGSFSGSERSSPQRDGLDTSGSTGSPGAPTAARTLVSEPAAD
Description: (§1) Stable clones of Chinese hamster ovary (CHO) cells expressing human S1P1 and S1P5 were generated by transfecting the cells with the N-terminal hemagglutinin-tagged receptor in pcDNA3.1 expression vectors followed by antibiotic selection for S1P1 and S1P5 and picking of clones using cyclic adenosine monophosphate assay, fluorescence-activated flow cytometry using the associated tag as well as functional [^35S]-GTPγS binding assays. Stable clones of CHO cells expressing human S1P2, S1P3, and S1P4 with an N-terminal FLAG tag were purchased from Multispan, Inc. (Hayward, CA, United States; catalog numbers C1051-1, CG1049-1, and CG1052-1 for S1P2, S1P3, and S1P4, respectively). Cells were grown to confluence in adherent culture in 500-cm^2 culture trays before being detached with cell scraper in cell-lifting buffer (10 mM HEPES/154 mM NaCl/6.85 mM ethylenediaminetetraacetic acid [EDTA], pH 7.4) and pelleted by centrifugation for 5 min at 1000 rpm. Cell pellets were then resuspended and homogenized in membrane preparation buffer (10 mM HEPES/10 mM EDTA, pH 7.4) using a Polytron PT 1200E homogenizer (Kinematica, Luzern, Switzerland). To collect the membrane pellet, cell homogenates were centrifuged at 48,000 × g at 4°C for 30 min. After discarding the supernatant, the pellet was rehomogenized and recentrifuged as described above. The final pellet was collected and homogenized in ice-cold resuspension buffer (10 mM HEPES and 0.1 mM EDTA, pH 7.4).
(§2) Assay plates were sealed and incubated at room temperature with gentle agitation for 60 min before filtration as described above.
(§3) Data were again analyzed as raw counts per 60 s per well collected from the MicroBeta2 counter.

human S1P1 [3] = target: T1, human S1P1; assay: [^3H]-ozanimod competition radioligand binding
Description: as §1, §2, §3

human S1P3 = target: T3, human S1P3 (Homo sapiens, UniProt Q99500); assay: [^35S]-GTPγS binding; type: biochemical; details: mean ± SEM; for EC50: [^35S]-GTPγS binding, CHO cell membranes; for Human S1P3 IA: intrinsic activity relative to maximal S1P response (100%)
T3 construct: membrane preparation
T3 sequence (Q99500 whole entry): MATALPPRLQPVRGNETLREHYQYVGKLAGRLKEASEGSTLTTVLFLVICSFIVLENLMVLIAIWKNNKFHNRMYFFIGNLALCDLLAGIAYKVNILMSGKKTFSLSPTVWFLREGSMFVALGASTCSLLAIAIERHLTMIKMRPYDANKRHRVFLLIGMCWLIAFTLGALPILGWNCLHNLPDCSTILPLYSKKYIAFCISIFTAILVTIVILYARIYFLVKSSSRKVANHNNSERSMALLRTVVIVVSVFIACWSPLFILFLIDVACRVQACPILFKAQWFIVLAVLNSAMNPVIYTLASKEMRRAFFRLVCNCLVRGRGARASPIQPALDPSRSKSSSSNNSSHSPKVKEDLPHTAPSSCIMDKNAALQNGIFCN
Description: as §1
(§4) To quantitate receptor activation and G protein coupling, [^35S]-GTPγS binding assays were performed in 96-well nonbinding surface plates (Corning, New York, New York, United States; catalog number 3604) in a final volume of 200 μl. Test compounds were serial diluted in DMSO directly to the assay plate using the Tecan D300E digital printer in a total volume of 0.4 μl. […] All wells were brought to a total volume of 40 μl with assay buffer, and the reaction was initiated by the addition of 120 μl/well of assay buffer containing a mixture of 40 μg/ml S1P1–S1P5 membranes, 5–50 μM GDP (5 μM for S1P2 and S1P4, 16.67 μM GDP for S1P1 and S1P5, and 50 μM for S1P3), and 2.5 mg/ml of WGA PVT SPA beads (Perkin Elmer catalog number RPNQ0001). Assay plates were sealed and incubated at room temperature with gentle agitation for 30 min before adding 40 μl/well of 5× [^35S]-GTPγS (200 p.m. final) (Perkin Elmer, catalog number NEG030X250UC) in basic assay buffer (20 mM HEPES/10 mM MgCl2/100 mM NaCl/1 mM EDTA, pH 7.4) and then plates were resealed for an additional 40-min incubation at room temperature with gentle agitation. The experiment was terminated by centrifugation of the plates at 1000 rpm for 3 min using an Eppendorf (Hamburg, Germany) 5810R centrifuge and read on the MicroBeta2 microplate scintillation counter. Data were analyzed as raw counts per 40 s per well as collected from the MicroBeta2 counter. Raw counts were analyzed with GraphPad Prism version 8.0.0 using nonlinear regression to generate concentration response curves.

human S1P4 = target: T4, human S1P4 (Homo sapiens, UniProt O95977); assay: [^35S]-GTPγS binding; type: biochemical; details: mean ± SEM; for EC50: [^35S]-GTPγS binding, CHO cell membranes; for Human S1P4 IA: intrinsic activity relative to maximal S1P response (100%)
T4 construct: membrane preparation
T4 sequence (O95977 1-384): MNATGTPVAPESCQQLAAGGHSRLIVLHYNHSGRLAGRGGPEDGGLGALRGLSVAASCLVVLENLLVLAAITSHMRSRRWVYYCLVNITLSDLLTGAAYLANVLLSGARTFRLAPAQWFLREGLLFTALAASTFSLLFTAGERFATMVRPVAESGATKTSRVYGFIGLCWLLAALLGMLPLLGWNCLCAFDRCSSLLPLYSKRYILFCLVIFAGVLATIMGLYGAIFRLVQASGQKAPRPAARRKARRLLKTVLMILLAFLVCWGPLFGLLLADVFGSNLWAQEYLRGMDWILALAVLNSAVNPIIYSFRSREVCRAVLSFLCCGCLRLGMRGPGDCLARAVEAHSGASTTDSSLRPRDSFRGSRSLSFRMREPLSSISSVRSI
Description: as §1, §4

human S1P5 [4] = target: T2, human S1P5; assay: [^35S]-GTPγS binding; type: biochemical; details: for EC50: [^35S]-GTPγS binding, CHO cell membranes; for EC50 / Human S1P5 IA: mean ± SEM; for Human S1P5 IA: intrinsic activity relative to maximal S1P response (100%); for GTPγS potency for human S1P5 weaker than that for S1P1: S1P5 versus S1P1 EC50
Description: as §1, §4

human S1P1 [5] = target: T1, human S1P1; assay: [^35S]-GTPγS binding; type: biochemical; details: mean ± SEM; for EC50: [^35S]-GTPγS binding, CHO cell membranes; for Human S1P1 IA: intrinsic activity relative to maximal S1P response (100%)
Description: as §1, §4

human S1P2 = target: T5, human S1P2 (Homo sapiens, UniProt O95136); assay: [^35S]-GTPγS binding; type: biochemical; details: mean ± SEM; for EC50: [^35S]-GTPγS binding, CHO cell membranes; for Human S1P2 IA: intrinsic activity relative to maximal S1P response (100%)
T5 construct: membrane preparation
T5 sequence (O95136 whole entry): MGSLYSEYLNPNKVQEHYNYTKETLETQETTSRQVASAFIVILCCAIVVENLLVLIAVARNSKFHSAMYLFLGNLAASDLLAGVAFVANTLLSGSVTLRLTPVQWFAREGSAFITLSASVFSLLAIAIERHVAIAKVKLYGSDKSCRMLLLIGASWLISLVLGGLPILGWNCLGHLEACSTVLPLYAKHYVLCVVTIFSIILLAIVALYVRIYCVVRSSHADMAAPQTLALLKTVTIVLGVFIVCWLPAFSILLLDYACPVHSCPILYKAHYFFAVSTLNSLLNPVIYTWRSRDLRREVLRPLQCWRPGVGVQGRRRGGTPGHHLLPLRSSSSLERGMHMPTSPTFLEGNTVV
Description: as §1, §4

human S1P5 [6] = target: T2, human S1P5; assay: Saturation radioligand binding with [^3H]-ozanimod; details: CHO cell membranes expressing human S1P5, saturation binding
Description: as §1, with “Cell pellets were then resuspended and homogenized in membrane preparation buffer (10 mM HEPES/10 mM EDTA, pH 7.4) using a Polytron PT 1200E homogenizer (Kinematica, Luzern, Switzerland). To collect the membrane pellet, cell homogenates were centrifuged at 48,000 × g at 4°C for 30 min. After discarding the supernatant, the pellet was rehomogenized and recentrifuged as described above. The final pellet was collected and homogenized in ice-cold resuspension buffer (10 mM HEPES and 0.1 mM EDTA, pH 7.4).” left out
Filter plates were prepared by adding 80 μl/well of 0.3% poly (ethyleneimine) and incubating for 60 min at room temperature before washing with 150 ml of filtration buffer (50 mM Tris HCl [pH 7.4], 5 mM MgCl2, and 1 mM EDTA) using a FilterMate-96 harvester. […] Filter plates were then allowed to air dry before the addition of 50 μL/well of MicroScint-20 cocktail, plate sealing, and reading on a MicroBeta2 microplate scintillation counter. […]

SMILES	Emax (human S1P1 [1]) [%]	EC50 (human S1P1 [1]) [nM]	Ki (human S1P5 [2]) [nM]	Ki (human S1P1 [3]) [nM]	EC50 (human S1P3) [nM]	Human S1P3 IA (human S1P3) [%]	EC50 (human S1P4) [nM]	Human S1P4 IA (human S1P4) [%]	EC50 (human S1P5 [4]) [nM]	Human S1P5 IA (human S1P5 [4])	EC50 (human S1P1 [5]) [nM]	Human S1P1 IA (human S1P1 [5]) [%]	EC50 (human S1P2) [nM]	Human S1P2 IA (human S1P2)	GTPγS potency for human S1P5 weaker than that for S1P1 (human S1P5 [4])	Kd (human S1P5 [6]) [nM]	Human S1P5 IA (human S1P5 [4]; listed as amiselimod-p) [%]	displacement of specific [^3H]-ozanimod binding, S1P5 (human S1P5 [2]; result in words)	displacement of specific [^3H]-ozanimod binding, S1P1 (human S1P1 [3]; result in words)
CCc1cc(/C(C)=N/OCc2ccc(C3CCCCC3)c(C(F)(F)F)c2)ccc1CN1CC(C(=O)O)C1 [Siponimod]	68.6 ± 9.2	9.3 ± 2.79	0.43 ± 0.08	0.74 ± 0.09	> 1110	90.7 ± 2.5	384 ± 67.8	81.5 ± 2.4	0.3 ± 0.02	102 ± 9.1%	0.46 ± 0.05	82.1 ± 0.9	> 10000	NR (NR indicates no response where the maximal response was less than 10% of that of S1P)	–	–	–	–	–
O=C(O)C[C@H]1CCc2c1[nH]c1ccc(OCc3ccc(C4CCCC4)c(C(F)(F)F)c3)cc21 [Etrasimod]	75.8 ± 1.8	11.3 ± 2.32	16.3 ± 0.71	6.73 ± 0.62	1160 ± 354	81.2 ± 17	1130 ± 189	40.4 ± 4.6	58.9 ± 6.75	82 ± 4.4%	5.48 ± 0.46	86.6 ± 1.1	> 10000	NR (NR indicates no response where the maximal response was less than 10% of that of S1P)	approximately 10 fold	–	–	–	–
CCC/N=C1\S/C(=C\c2ccc(OC[C@H](O)CO)c(Cl)c2)C(=O)N1c1ccccc1C [Ponesimod]	61.2 ± 1.6	2.66 ± 0.42	17.4 ± 4.32	9.37 ± 1.31	89.5 ± 14.3	82.1 ± 7.5	> 10000	26.5 ± 2.5	43.2 ± 12	92.9 ± 9.8%	3.42 ± 1.17	85.8 ± 6.2	> 10000	NR (NR indicates no response where the maximal response was less than 10% of that of S1P)	approximately 10 fold	–	–	–	–
CCCCCCCCc1ccc(CCC(N)(CO)COP(=O)(O)O)cc1 (stereo not drawn) [FTY720-p, FTY720-phosphate]	79.8 ± 4.3	–	–	–	–	106.5 ± 8.3	2.06 ± 0.3	59.2 ± 5.4	–	74% and 74 ± 5.1%	–	84.9 ± 2.3	–	33.2 ± 1%	–	–	–	–	–
[3H]CC([3H])(C)Oc1ccc(-c2nc(-c3cccc4c3CC[C@@H]4NCCO)no2)cc1C#N (stereo partly drawn) [[^3H]-ozanimod]	–	–	–	–	–	–	–	–	–	–	–	–	–	–	–	3.13	–	–	–
CCCCCCCOc1ccc(CCC(N)(CO)COP(=O)(O)O)cc1C(F)(F)F (stereo not drawn) [Amiselimod-p]	76.1 ± 11.6	2.83 ± 2.21	0.25 ± 0.04	0.13 ± 0.02	19 ± 2.98	29.1 ± 1.6	2.23 ± 0.13	122.2 ± 3.6	0.58 ± 0.08	76.6 ± 6.9%	0.15 ± 0.01	84.1 ± 1.6	> 4000	NR (NR indicates no response where the maximal response was less than 10% of that of S1P)	–	–	76.6	–	–
NC(CO)(CCc1ccc(Sc2cccc(OCc3ccccc3)c2)cc1Cl)COP(=O)(O)O (stereo not drawn) [KRP-203-p, KRP-203-phosphate]	72.3 ± 5.4	2.98 ± 0.96	0.24 ± 0.04	0.22 ± 0.02	3.17 ± 0.26	25.7 ± 3.8	3.13 ± 0.29	56.3 ± 3.8	0.69 ± 0.19	45.8 ± 7.6%	0.26	85.7 ± 3.6	> 10000	NR (NR indicates no response where the maximal response was less than 10% of that of S1P)	–	–	–	–	–
CC(C)Oc1ccc(-c2nc(-c3cccc4c3CC[C@@H]4NCCO)no2)cc1C#N [Ozanimod]	68.7 ± 3.5	–	1.93 ± 0.07	–	> 1110	89.4 ± 7.4	1490 ± 306	39.4 ± 5.3	5.84 ± 0.51	97 ± 3.7%	–	85 ± 1	> 10000	34.8 ± 1%	approximately 10 fold	–	–	–	–
CCCCCCCCCCCCC/C=C/[C@@H](O)[C@@H](N)COP(=O)(O)O [S1P, sphingosine 1-phosphate]	–	–	–	2.33 ± 0.17	–	–	–	–	–	–	–	–	–	–	–	–	–	completely displaced	completely displaced
